These results are taken from patent US10028970B2, “Composition comprising cashew apple extract” (NATUREX, priority 2011, dated 2018).

The structures appear in SMILES notation.

A short description of the data set: Thermal degradation kinetics of CAE in water at 100° C. (HPLC). Type of data set: physicochemical. The conditions noted are these: CAE 50 g/L in deionised water. The protocol: The thermal degradation kinetics of CAE in water was investigated at 100° C. CAE was dissolved in deionised water at the concentration of 50 g/L and the solution was well homogenized. Volumes of 4 ml of this solution were placed in glass tubes, sealed, and placed in a mineral oil bath at 100° C. At predetermined intervals: 0, 10, 20, 30, 45, 60, 90, and 120 min, sample tubes were removed from the mineral oil bath and rapidly cooled in ice. For the analysis, 1 ml of each sample was mixed with 4 ml of HPLC grade methanol, homogenized, and filtrated on 0.45 μm HPLC filter. Then, 20 μL of the solution was analyzed in HPLC. The phytochemical composition of the samples was measured by reversed phase liquid chromatography using a C-18 column (ACE, 250×4.6 mm, 5 μm) at 280 nm. The areas under peak of the major components of CAE were measured in the different samples representing different time points of at 100° C.

Regarding `O=C(/C=C/c1ccccc1)O[C@@H]1O[C@H](CO)[C@@H](O)[C@H](O)[C@H]1O` (relative stereo) [1-O-trans-cinnamoyl-beta-D-glucoside, 1-O-trans-cinnamoyl-beta-D-glucopyranose], the “incubation time after which the amount in the extract was divided by 2” value was determined as 30 min. Where the note is “120 min”, the “amount remaining in the extract after 120 min of incubation” value is on record as “almost completely disappeared from the extract”.
